Results from patent US11484529B2, “Desmethylanethole trithione derivatives for the treatment of diseases linked to mitochondrial reactive oxygen species (ROS) production” (OP2 Drugs, priority 2017, dated 2022).

Legend:
[1] = test system: diet-induced obese (DIO) mice; experiment: Chronic treatment in diet-induced obese mice (body weight, body composition, ITT, glucose); assay type: in vivo, mouse; conditions: for AUC of glucose during ITT: mean±SEM, vehicle 12812.50±750.35
Experimental: The aim of the study was to determine whether the compound AOL, administered daily at the doses of 5 mg/kg and 10 mg/kg for up to five weeks by intraperitoneal (i.p.) daily administration in diet-induced obese (DIO) mice fed with a high-fat diet (HFD), modifies food intake, body weight, adiposity and glucose metabolism.
Mice were fed ad libitum with a HFD (60% of calories from fat, mostly lard) for twelve weeks before the pharmacological study begun. Animals received AOL or its vehicle by intraperitoneal (i.p.) administration and were maintained on HFD for the length of the study. Food intake and body weight were measured daily and recorded for up to three consecutive weeks.
Thirty 7-weeks-old male C57/B16J mice arrived to the laboratory on 25 Feb. 2016 and underwent a first in vivo body composition analysis (Echo MRI 900, EchoMRI Systems) after 1 week of adaptation to the experimental housing room. After this first MRI analysis, animals were fed a high-fat diet (HFD) ad libitum for a period of twelve weeks. Thereafter, they underwent a second MRI analysis and were distributed into 3 experimental groups of equivalent body weight and body composition.
Once the pharmacological treatment started (day 1), food intake (FI) and body weight (BW) were measured daily before the dark phase in animals housed in their home cage. Spillage of food was checked daily. The food consumed was calculated by subtracting the food left in the hoppers from the initial pre-weighted amount. FI and BW were measured for three consecutive weeks. Afterwards animals underwent a third MRI analysis in order to observe potential effects of the treatment onto the body composition (changes in fat and lean mass), followed by a glucose tolerance test (GTT) and an insulin tolerance test (ITT). Mice received daily i.p. administration of AOL or its vehicle for a total length of five weeks, until they were sacrificed.
A nuclear echo magnetic resonance imaging whole-body composition analyzer (Echo MRI 900; EchoMedical Systems) was used to repeatedly assess body fat and lean mass in conscious mice.
Animals were injected i.p. with 1.5 g/kg of D-Glucose (Sigma-Aldrich) for the GTT or with 0.5 U/kg of insulin (Humulin, Lilly, France) for the ITT. For the GTT and the ITT, animals were fasted overnight. The tests were conducted the following morning. Blood samples were taken from the tail vein at different time points (0, 15, 30, 60, 90 and 120 minutes after the i.p. administration of glucose or insulin) and glucose concentration was measured using glucose sticks (OneTouch Vita, Lifescan France, Issy les Moulineaux, France).
At sacrifice, blood samples were collected, blood glucose was rapidly assessed using glucose sticks and blood samples were then centrifuged at 3000 rpm for 15 minutes. The obtained plasma was stored at −80° C. for subsequent measurement of insulin, which was carried out by performing an ELISA (kit from Mercodia, Uppsala, Sweden), according to the manufacturer's instructions.

[2] = cited from earlier work
[3] = test system: Sod2-KO mice; experiment: Sod2-KO mice (lifespan, heart SDH activity, liver Oil Red O staining); assay type: in vivo, mouse
Description: Mice deficient in mitochondrial Mn-Superoxide Dismutase (Sod2-KO) on a CD1-background were used. This genetic alteration leads to an adverse phenotype and the death of animals at an average of 8 days old. Mitochondrial superoxide dismutase is a free radical scavenging enzyme which transforms superoxide (highly reactive) into hydrogen peroxide (less reactive), that could then cross mitochondrial membranes and be detoxified by matrix and cytosolic anti-oxidant systems. The aim of this study was to test if AOL could rescue the Sod2-KO phenotype through its activity on IQ superoxide production.
After birth, pups were genotyped (3 day-old) and the litter size was reduced to 6 pups per cage. Animals were then treated (AOL in Kolliphor®—5 mg/kg) or not (Kolliphor® only, noted KOL below). […] Two studies were conducted on two different generations from the same parents: lifespan; and succinate dehydrogenase activity in heart (SDH) and Oil Red O staining in liver. Animals were weighed and injected (intra-peritoneal) daily.
Succinate dehydrogenase activity is a marker of superoxide in the mitochondrial matrix. Thus, a lack of SOD2 is associated with a decrease of SDH activity in heart. The aim of this experiment was to test whether or not AOL could restore SDH activity in KO mice.
However, the direct link between superoxide/hydrogen peroxide production and liver lipid accumulation is not established. The aim of the study was to test the potency of AOL to prevent liver lipid accumulation in Sod2-KO mice.
Animals were injected once a day from 3 days old until their death.
In this study, animals were treated daily (5 mg/kg) from day 3 to day 5. Heart and liver were harvested at day 6.

[4] = test system: retina (outer nuclear layer); experiment: Progressive light-induced retinal degeneration; assay type: in vivo, rat; conditions: 6 mg/kg/day, three times a day, 7 days
Experimental: Rats bred under cyclic low-intensity lighting were transferred to cyclic high-intensity lighting for one week and divided into 3 groups (non-treated animals, vehicle-treated animals and AOL-treated animals). Treated animals received injections of vehicle or AOL at a dose of 6 mg/kg/day, three times a day for the 7 days of the transfer (30 minutes before light-ON; at […]). After one week, animals were transferred in the dark (D0).
A control group (“untransferred”) was not transferred to cyclic high-intensity lighting but received the same treatment as described above: injections of vehicle or AOL three times a day for 7 days, followed by a transfer in the dark (D0).
Animals were then sacrificed for histological analysis.

[5] = test system: H460 carcinoma cells; experiment: Transwell cell migration (metastatic activity); assay type: cell-based, human; conditions: AOX 5 and 10 μM, 16 hours
Experimental: Cell migration assays were performed in Transwells (Corning Inc., 8.0-μm pore size). For migration assay, 2·10^4 cells in serum-free medium were added to the upper wells. Media containing 10% FBS were added to the lower wells. Cells that migrated through the filter after 16 hours were stained with 0.2% crystal violet and counted using the software Image J.
The Transwell test of cell migration has been utilized for this assay and the migration of H460 carcinoma cells has been measured in the presence of two different concentrations of AOX (5 and 10 μM) and compared to the effect of 100 μM N-acetyl cystein (NAC) as a positive control of cytosolic ROS production (FIG. 25).

[6] = 5 mg/kg daily, day 3 to day 5, Oil Red O

SMILES | effect on body weight ([1]; 5 and 10 mg/kg i.p. daily, HFD, three weeks) | AUC of glucose during ITT ([1]; AOL 5 mg/kg) | action of insulin on circulating glucose levels during an ITT ([1]; AOL 10 mg/kg) | AUC of glucose during ITT ([1]; AOL 10 mg/kg) | blood glucose levels ([1]; after five weeks of treatment, 2-hour fasted mice) | lean mass ([1]; after three weeks of chronic administration) | fat mass ([1]; after three weeks of chronic administration, p=0.13) | body weight and food intake ([1]; chronic daily administration, data not shown) | bioavailability [2] | SDH activity in heart of KO mice ([3]; 5 mg/kg daily, day 3 to day 5) | liver lipid droplets density in KO mice [3, 6] | liver total lipid area in KO mice [3, 6] | lifespan extension compared to untreated KO mice ([3]; 5 mg/kg i.p. daily from 3 days old) | body weight and body weight gain of KO mice ([3]; 5 mg/kg i.p. daily, day 8 to 12) | thickness of the outer nuclear layer (ONL) ([4]; transferred to cyclic high-intensity lighting) | thickness of the outer nuclear layer (ONL) ([4]; untransferred control group) | metastatic activity (cells crossing the membrane) [5]
COc1ccc(-c2cc(=S)ss2)cc1 [AOL, 5-(4-methoxyphenyl)-3H-1,2-dithiole-3-thione] | did not have a significant effect | 15006.56±1139.69 | significantly blunted the action of insulin | 18168.33±1562.90 | tended to decrease blood glucose levels | did not have any effect on lean mass | tended to reduce fat mass | tended to decrease body weight and food intake | known to be very short | only a very slight increase in SDH activity | lipid droplets density decreased | able to restore the total lipid area | up to 2 days | tends to alleviate this effect | significant increase of the thickness of the ONL | no effect on ONL's thickness | 
Oc1ccc(-c2cc(=S)ss2)cc1 [AOX, 5-(4-hydroxyphenyl)-3H-1,2-dithiole-3-thione] |  |  |  |  |  |  |  |  |  |  |  |  |  |  |  |  | absence of induction of metastatic activity
